According to patent publication US20260335514A1, “Drug-Coated Medical Devices & Methods of Making” (Bard Peripheral Vascular, Inc., priority 2022, published 2026):
Values after ≈ are worked out from the molar mass of the structure shown. Values joined by “and” are separate entries in the source; they are usually repeats but may differ in a detail not shown here. Identical values can stand only once. Like-named read-outs stand apart in the source and are kept apart here.

Columns and labels:
[1] = system: femoral arteries of porcine model; assay: morphometry of stented arteries (Example 4); format: in vivo; details: for amount of restenosis observed (in words): 60 and 90 days
Protocol: (§1) In Example 4, formulations for stent drug coatings were prepared as subsequently described, followed by obtaining 7, 28, 60, and 90 days histological data from in vivo studies when implanted in femoral arteries of porcine model.
(§2) Five total formulations were used: a control of PVDF only, prepared at a concentration of 5 mg/mL in a solution of 90% acetone and 10% cyclohexane; a colchicine coating, prepared in a 5:1 PVDF: colchicine ratio with 5 mg/mL provided to 90% acetone and 10% DMF; a roflumilast coating at a 5:1 PVDF:roflumilast ratio, with […] provided to a 42.5% EtOAc, 50% acetone, and 7.5% DMF solution; a tadalafil coating prepared at 3:1 PVDF:tadalafil, provided at 5 mg/mL in a solution of 30% EtOAc, 60% acetone, and 10% DMF; and a sunitinib coating provided at 3:1 PVDF:sunitinib malate, prepared at 5 mg/mL in a solution of 60% MeOAc, 30% acetone, and 10% DMF. Coatings were provided to 5×40 mm and 6×40 mm stents. Loading concentrations were assessed prior to and after ETO (ethylene oxide) sterilization and no discernable change was noted by the process.
(§3) Histological studies were then performed at 60 and 90 days.

[2] = system: femoral arteries of porcine model; assay: histology of stented arteries (Example 4); format: in vivo
Protocol: as §1, §2, §3

[3] = system: femoral arteries of porcine model; assay: in vivo pharmacokinetics of drug coated stents (Example 4); details: 7 and 28 days after implantation; preliminary; FIG. 10
Protocol: as §1, §2
FIG. 10 sets forth some preliminary pharmacokinetic data obtained from the prepared stents at 7 and 28 days after implantation within the pigs.

solubility in PBS = format: physicochemical
Protocol: Drug coatings with crystalline forms of tyrosine kinase inhibitors were also examined. Sunitinib was again chosen as the candidate drug and crystal pamoate salts were prepared by recrystaliization in ethanol or ethanol and DMF for a hemi-pamoate.

[4] = octanol-water; cited from earlier work
[5] = cited from earlier work

Structure (SMILES) | Fibrin % ([2]; 60 days) [%] | Giant cell % ([2]; 60 days) [%] | Inflammation Score ([2]; 60 days) | PGs/Collagen score ([2]; 60 days) | Restenosis % area ([2]; 60 days) [%] | Fibrin % ([2]; 90 days) [%] | Giant cell % ([2]; 90 days) [%] | Inflammation Score ([2]; 90 days) | PGs/Collagen score ([2]; 90 days) | Restenosis % area ([2]; 90 days) [%] | solubility in PBS (solubility in PBS) [µM] | further results
COc1cc2c(c(OC)c1OC)-c1ccc(OC)c(=O)cc1[C@@H](NC(C)=O)CC2 [Colchicine, colchicine] |  |  |  |  |  |  |  |  |  |  |  | % Stenosis ([1]; pig, in vivo): 67.45% and 81.83%; Medial Area ([1]; pig, in vivo): 1.22; percentage of stenosis (in words) ([1]; pig, in vivo): seemingly accelerated amount of stenosis; Inflammation Score ([2]; pig, in vivo): 3.06; Restenosis % area ([2]; pig, in vivo): 67.45% and 81.83%
O=C(Nc1c(Cl)cncc1Cl)c1ccc(OC(F)F)c(OCC2CC2)c1 [Roflumilast, roflumilast] | 16.65 | 0.49 | 0.69 | 0.75 | 40.45 | 1.0 | 0.0 | 0.56 | 1.44 | 30.69 |  | pharmacokinetic data versus target (in words) [3]: expected target ranges
CCN(CC)CCNC(=O)c1c(C)[nH]c(/C=C2\C(=O)Nc3ccc(F)cc32)c1C [Sunitinib as a free base, sunitinib] |  |  |  |  |  |  |  |  |  |  | 26.4 (≈ 10.5 µg/mL) | 
CCN(CC)CCNC(=O)c1c(C)[nH]c(/C=C2\C(=O)Nc3ccc(F)cc32)c1C [Sunitinib, sunitinib] | 33.17 | 4.14 | 1.19 | 1.06 | 33.76 | 1.0 | 2.03 | 0.25 | 1.31 | 30.77 |  | amount of restenosis observed (in words) [1]: improvements in the amount of restenosis observed; percentage of stenosis (in words) ([1]; 60 days): similar
CN1CC(=O)N2[C@H](c3ccc4c(c3)OCO4)c3[nH]c4ccccc4c3C[C@@H]2C1=O [Tadalafil, tadalafil] | 26.69 | 7.26 | 1.19 | 1.44 | 35.38 | 1.31 | 30.12 | 1.94 | 1.38 | 27.4 |  | pharmacokinetic data versus target (in words) [3]: lower than expected; amount of restenosis observed (in words) [1]: improvements in the amount of restenosis observed; percentage of stenosis (in words) ([1]; 60 days): similar
CCN(CC)CCNC(=O)c1c(C)[nH]c(/C=C2\C(=O)Nc3ccc(F)cc32)c1C [hemi-pamoate] |  |  |  |  |  |  |  |  |  |  | 6.02 (≈ 2.4 µg/mL) | 
CC(=O)O[C@H]1C(=O)[C@@]2(C)[C@H]([C@H](OC(=O)c3ccccc3)[C@]3(O)C[C@H](OC(=O)[C@H](O)[C@@H](NC(=O)c4ccccc4)c4ccccc4)C(C)=C1C3(C)C)[C@]1(OC(C)=O)CO[C@@H]1C[C@@H]2O [paclitaxel] |  |  |  |  |  |  |  |  |  |  |  | log P [4]: 7.4
CCN(CC)CCNC(=O)c1c(C)[nH]c(/C=C2\C(=O)Nc3ccc(F)cc32)c1C [pamoate crystal] |  |  |  |  |  |  |  |  |  |  | 9.6 | 
CCN(CC)CCNC(=O)c1c(C)[nH]c(/C=C2\C(=O)Nc3ccc(F)cc32)c1C [sunitinib malate] |  |  |  |  |  |  |  |  |  |  |  | solubility in PBS (solubility in PBS; listed as malate salt): 1231 µM; water solubility [5]: about 25 mg/mL
